US20220064138A1, “MACROLIDE BREFELDIN A ESTER DERIVATIVES AND USE THEREOF” (OCEAN UNIVERSITY OF CHINA, priority 2019, published 2022)

Columns and labels:
Assay in all cases: Cell proliferation assay (CCK-8)
Type in all cases: cell-based
[1] = system: Human cervical cancer Hela cells; settings: 72 h
From the text: (§1) CCK-8 method: The CCK-8 method is a highly sensitive, non-radioactive colorimetric assay for the determination of the number of viable cells in cell proliferation or cytotoxicity assays. The orange formazan dye produced by the bioreduction of CCK-8 by intracellular dehydrogenase is soluble in the cell culture medium, and the amount of formazan dye produced is proportional to the number of living cells. The kit used in this method is the tetrazolium salt-WST-8 (2-(2-methoxy-4-nitrophenyl)-3-(4-nitrophenyl)-5-(2,4-disulfophenyl)-2H-tetrazolium monosodium salt) developed by Dojindo Chemical Research Institute (Dojindo), which is capable of being reduced to a water-soluble formazan dye in the presence of the electronic carrier 1-Methoxy PMS.
(§2) Human cervical cancer Hela cells, pancreatic cancer PANC-1 cells, esophageal cancer Eca-109 cells, human leukemia K562 cells, human lung cancer A549 cells, human liver cancer HepG2 cells, human gastric cancer MKN-45 cells, human breast cancer MCF7 cells were cultured in DMEM medium containing 10% FBS (fetal bovine serum), 100 U/mL penicillin and 100 μg/ml streptomycin. Hepatocellular carcinoma cells Bel-7402 were cultured in RPMI-1640 medium containing 10% FBS (fetal bovine serum), 100 U/ml penicillin and 100 μg/ml streptomycin. All cells were placed in a cell culture incubator at 37° C. with 5% CO2. Cells fluid was changed every 3-5 days, and after 80% cell fusion, trypsin digestion and passaging were performed to keep the cells in good logarithmic growth phase.
(§3) All the samples to be tested were dissolved in DMSO.
(§4) Cells in logarithmic growth phase were inoculated in 96-well plates with 5000 cells/well respectively, and after 24 h of incubation, samples were added (final concentrations as shown in the table), and biplicate wells were set up for each sample. The amount of solvent of DMSO was not higher than 2‰. After 72 h, 10 μL of CCK-8 solution was added to each well and incubated for 1.5˜3 h at 37° C. The OD value at 450 nm was measured on an plate reader.
(§5) Inhibition rate (%)=(1−[(OD450 dosed well−OD450 blank well)/(OD450 control well−OD450 blank well)])×100%
(§6) The fitted IC50 values were calculated using the log (inhibitor) vs. response-Variable slop analysis method in GraphPad Prism software.

[2] = system: human lung cancer A549 cells; settings: A549, 72 h
From the text: as §1, §2, §3, §4, §5, §6

[3] = system: human breast cancer MCF7 cells; settings: MCF7, 72 h
From the text: as §1, §2, §3, §4, §5, §6

[4] = system: pancreatic cancer PANC-1 cells; settings: Homo sapiens, PANC-1, 72 h
From the text: as §1, §2, §3, §4, §5, §6

[5] = system: human leukemia K562 cells; settings: K562, 72 h
From the text: as §1, §2, §3, §4, §5, §6

[6] = system: human gastric cancer MKN-45 cells; settings: MKN-45, 72 h
From the text: as §1, §2, §3, §4, §5, §6

[7] = system: human liver cancer HepG2 cells; settings: HepG2, 72 h
From the text: as §1, §2, §3, §4, §5, §6

[8] = system: esophageal cancer Eca-109 cells; settings: Homo sapiens, Eca-109, 72 h
From the text: as §1, §2, §3, §4, §5, §6

Row | SMILES | IC50 [1] [nM] | IC50 [2] [nM] | IC50 [3] [nM] | IC50 [4] [nM] | IC50 [5] [nM] | IC50 [6] [nM] | IC50 [7] [nM] | IC50 [8] [nM]
1 | Cc1ccccc1/C=C/C(=O)O[C@@H]1C[C@@H]2[C@H](/C=C/CCC[C@H](C)OC(=O)/C=C/[C@H]2OC(=O)/C=C/c2ccccc2C)C1 [Compound 8c, 4,7-O-bis(2-methylcinnamic acid)acyl BFA] | 1000 to 10000 | 1000 to 10000 | 1000 to 10000 | 1000 to 10000 | 1000 to 10000 | 100 to 1000 | 1000 to 10000 | 100 to 1000
2 | C[C@H]1CCC/C=C/[C@@H]2C[C@H](OC(=O)/C=C/c3ccc4c(c3)OCO4)C[C@H]2[C@H](O)/C=C/C(=O)O1 [Compound 9a, 7-O—((E)-3-(benzo[d][1,3]dioxa-5-yl)acrylic acid)acyl BFA] | 1000 to 10000 | 100 to 1000 | 100 to 1000 | 100 to 1000 | 100 to 1000 | 100 to 1000 | 1000 to 10000 | 1000 to 10000
3 | C[C@H]1CCC/C=C/[C@@H]2C[C@H](OC(=O)/C=C/c3ccc4c(c3)OCO4)C[C@H]2C(OC(=O)/C=C/c2ccc3c(c2)OCO3)/C=C/C(=O)O1 (stereo partly drawn) [Compound 9c, 4,7-O-bis((E)-3-(benzo[d][1,3]dioxa-5-yl)acrylic acid)acyl BFA] | 1000 to 10000 | 1000 to 10000 | 1000 to 10000 | 1000 to 10000 | 100 to 1000 | 100 to 1000 | 1000 to 10000 | 1000 to 10000
4 | COc1cc(/C=C/C(=O)O[C@@H]2C[C@H]3[C@H](O)/C=C/C(=O)O[C@@H](C)CCC/C=C/[C@@H]3C2)cc(OC)c1OC [Compound 11a, 7-O-(3,4,5-trimethoxycinnamic acid)acyl BFA] | 1000 to 10000 | 100 to 1000 | 100 to 1000 | 100 to 1000 | 100 to 1000 | 100 to 1000 | 100 to 1000 | 1000 to 10000
5 | COc1cc(/C=C/C(=O)O[C@@H]2/C=C/C(=O)O[C@@H](C)CCC/C=C/[C@@H]3C[C@H](O)C[C@H]32)cc(OC)c1OC [Compound 11b, 4-O-(3,4,5-trimethoxycinnamic acid)acyl BFA] | 1000 to 10000 | 100 to 1000 | 100 to 1000 | 100 to 1000 | 100 to 1000 | 100 to 1000 | 100 to 1000 | 1000 to 10000
6 | COc1cc(/C=C/C(=O)O[C@@H]2C[C@@H]3[C@H](/C=C/CCC[C@H](C)OC(=O)/C=C/[C@H]3OC(=O)/C=C/c3cc(OC)c(OC)c(OC)c3)C2)cc(OC)c1OC [Compound 11c, 4,7-O-bis(3,4,5-trimethoxycinnamic acid)acyl BFA] | 1000 to 10000 | 100 to 1000 | 1000 to 10000 | 1000 to 10000 | 100 to 1000 | 1000 to 10000 | 1000 to 10000 | 1000 to 10000
7 | C[C@H]1CCC/C=C/[C@@H]2C[C@H](OC(=O)/C=C/c3ccc(C(F)(F)F)cc3)C[C@H]2[C@H](O)/C=C/C(=O)O1 [Compound 13a, 7-O-(4-trifluoromethylcinnamic acid)acyl BFA] | 100 to 1000 | 100 to 1000 | 100 to 1000 | 100 to 1000 | 100 to 1000 | 100 to 1000 | 100 to 1000 | 100 to 1000
8 | C[C@H]1CCC/C=C/[C@@H]2C[C@H](O)C[C@H]2[C@H](OC(=O)/C=C/c2ccc(C(F)(F)F)cc2)/C=C/C(=O)O1 [Compound 13b, 4-O-(4-trifluoromethylcinnamic acid)acyl BFA] | 100 to 1000 | 100 to 1000 | 100 to 1000 | 100 to 1000 | 100 to 1000 | 100 to 1000 | 100 to 1000 | 100 to 1000
9 | C[C@H]1CCC/C=C/[C@@H]2C[C@H](OC(=O)/C=C/c3ccc(C(F)(F)F)cc3)C[C@H]2[C@H](OC(=O)/C=C/c2ccc(C(F)(F)F)cc2)/C=C/C(=O)O1 [Compound 13c, 4,7-O-bis(4-trifluoromethylcinnamic acid)acyl BFA] | 1000 to 10000 | 100 to 1000 | 1000 to 10000 | 1000 to 10000 | 100 to 1000 | 1000 to 10000 | 1000 to 10000 | 1000 to 10000
